Each structure is given as a SMILES string. Bounds are passed on as bounds.

What all share (format): biochemical
Assay [1] addresses T1, PTK2 enzyme (Homo sapiens, UniProt Q05397).
T1 construct: purchased Invitrogen PV3832
Nature of the assay: PTK2 enzyme test, Assay 1 (DELFIA, poly-Glu-Tyr substrate, antibody PT60). Particulars: Assay 1 (values without *); 1 h pre-incubation, 2% DMSO. An outline of the steps:
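Active PTK2 (0.01 µg/well) preincubated 1 h at RT with compound (duplicates, 2% DMSO final), then reacted 1 h at RT with poly(Glu,Tyr) 4:1 plus biotinylated poly(Glu,Tyr) and an ATP mix containing 50 μM ATP. EDTA-stopped, streptavidin-captured product detected by Eu-PT60 anti-phosphotyrosine DELFIA; IC50 by variable-Hill sigmoid fit.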

Assay [2] addresses T2, Xenopus laevis Aurora B/INCENP complex (Xenopus laevis, UniProt Q6DE08).
T2 construct: equipped at the N-terminal position with a GST tag (amino acids 60-361); GST (N, cleaved yes); made in house; host or cells: E. coli BL21 (DE3)
Nature of the assay: Aurora-B kinase assay (radioactive enzyme inhibition). The source says:
A radioactive enzyme inhibition assay was developed using E. coli-expressed recombinant Xenopus laevis Aurora B wild-type protein equipped at the N-terminal position with a GST tag (amino acids 60-361) in a complex with Xenopus laevis INCENP (amino acids 790-847), which is obtained from bacteria and purified. In equivalent manner a Xenopus laevis Aurora B mutant (G96V) in a complex with Xenopus laevis INCENP^790-847 may also be used.
The coding sequence for Aurora-B^60-361 from Xenopus laevis is cloned into a modified version of pGEX-6T (Amersham Biotech) via BamHI and SalI cutting sites. The vector contains two cloning cassettes which are separated by a ribosomal binding site, allowing bi-cistronic expression. In this configuration Xenopus laevis Aurora B is expressed by the first cassette, and the Xenopus laevis INCENP^790-847 is expressed by the second cassette. The resulting vector is pAUB-IN^847.
First of all the E. coli strain BL21 (DE3) is co-transformed with pUBS520 helper plasmid and pAUB-IN^847, after which protein expression is induced using 0.3 mM IPTG at an OD600 of 0.45-0.7. The expression is then continued for approx. 12-16 h at 23-25° C. with agitation.
The bacteria are then removed by centrifuging and the pellet is lysed in lysis buffer (50 mM Tris/Cl pH 7.6, 300 mM NaCl, 1 mM DTT, 1 mM EDTA, 5% glycerol, Roche Complete Protease Inhibitor tablets) using ultrasound, using 20-30 mL lysis buffer per litre of E. coli culture. The lysed material is freed from debris by centrifugation (12000 rpm, 45-60 min, JA20 rotor). The supernatant is incubated with […] of equilibrated GST Sepharose Fast Flow (Amersham Biosciences) per litre of E. coli culture for 4-5 h at 4° C. Then the column material is washed with 30 volumes of lysis buffer and then equilibrated with 30 volumes of cleavage buffer (50 mM Tris/Cl pH 7.6, 150 mM NaCl, 1 mM DTT, 1 mM EDTA). To cleave the GST tag from Aurora B, 10 units of Prescission Protease (Amersham Biosciences) are used per milligram of substrate and the mixture is incubated for 16 h at 4° C. The supernatant which contains the cleavage product is loaded onto a 6 mL Resource Q column (Amersham Biosciences) equilibrated with ion exchange buffer (50 mM Tris/Cl pH 7.6, 150 mM NaCl, 1 mM DTT, 1 mM EDTA). The Aurora B/INCENP complex is caught as it flows through, then concentrated and loaded onto a Superdex 200 size exclusion chromatography (SEC) column equilibrated with SEC buffer (10 mM Tris/Cl pH 7.6, 150 mM NaCl, 1 mM DTT, 1 mM EDTA). Fractions which contain the AuroraB/INCENP complex are collected and concentrated using Vivaspin concentrators (molecular weight exclusion 3000-5000 Da) to a final concentration of 12 mg/mL. Aliquots (e.g. 240 ng/μL) for kinase assays are transferred from this stock solution into freezing buffer (50 mM Tris/Cl pH 8.0, 150 mM NaCl, 0.1 mM EDTA, 0.03% Brij-35, 10% glycerol, 1 mM DTT) and stored at −80° C.
Test substances are placed in a polypropylene dish (96 wells, Greiner #655 201), in order to cover a concentration frame of 10 μM-0.0001 μM. The final concentration of DMSO in the assay is 5%. 30 μL of protein mix (50 mM Tris/Cl pH 7.5, 25 mM MgCl2, 25 mM NaCl, 167 μM ATP, 10 ng Xenopus laevis Aurora B/INCENP complex in freezing buffer) are pipetted into the 10 μl of test substance provided in 25% DMSO and this is incubated for 15 min at RT. Then 10 μL of peptide mix (100 mM Tris/Cl pH 7.5, 50 mM MgCl2, 50 mM NaCl, 5 μM NaF, 5 μM DTT, 1 μCi gamma-P33-ATP [Amersham], 50 μM substrate peptide [biotin-EPLERRLSLVPDS or multimers thereof, or biotin-EPLERRLSLVPKM or multimers thereof, or biotin-[…]]) are added. The reaction is incubated for 75 min (ambient temperature) and stopped by the addition of 180 μL of 6.4% trichloroacetic acid and incubated for 20 min on ice. […]

In assay [3] the target is T1, PTK2 enzyme. The assay can be described thus: PTK2 enzyme test, Assay 2 (DELFIA, poly-Glu-Tyr substrate, antibody PT66). The settings on record: Assay 2 (values marked *); 1 h pre-incubation, 0.5% DMSO. An excerpt:
This test uses active PTK2 enzyme (Invitrogen Code PV3832) and poly-Glu-Tyr (4:1, Sigma P-0275) as the kinase substrate. The kinase activity is detected by means of the phosphorylation of the substrate in a DELFIA™ assay. The phosphorylated substrate is detected with the europium-labelled phosphotyrosine antibody PT66 (Perkin Elmer, No.: AD0040).
In order to determine concentration-activity curves with PTK2-inhibitors the compounds are serially diluted first of all in 10% DMSO/H2O and then in kinase dilution buffer (20 mM TRIS/HCl pH 7.5, 0.1 mM EDTA, 0.1 mM EGTA, 0.286 mM sodium orthovanadate, 10% glycerol with the addition of freshly prepared BSA (fraction V, 1 mg/mL) and DTT (1 mM)) and 10 μL of each dilution are dispensed per well in a 96-well microtitre plate (clear U-shaped base plate, Greiner No. 650101) (the inhibitors are tested in duplicates) and mixed with 10 μL/well of PTK2 kinase (0.01 μg/well). PTK2 kinase is diluted accordingly beforehand with kinase dilution buffer. The diluted PTK2 inhibitor and the PTK2 kinase are pre-incubated for 1 h at RT and shaken at 500 revolutions per min. Then 10 μL/well poly-Glu-Tyr substrate (25 μg/well poly-Glu-Tyr, 0.05 μg/well biotinylated poly-Glu-Tyr dissolved in 250 mM TRIS/HCl pH 7.5, 9 mM DTT) are added. The reaction is started by the addition of 20 μL of ATP Mix (30 mM TRIS/HCl pH 7.5, 0.02% Brij, 0.2 mM sodium orthovanadate, 10 mM magnesium acetate, 0.1 mM EGTA, 1× phosphatase inhibitor cocktail 1 (Sigma, No.: P2850), 50 μM ATP (Sigma, No.: A3377; 15 mM stock solution))—the final concentration of DMSO is 0.5%. After 1 h kinase reaction (the plates are shaken at 500 rpm), the reaction is stopped by the addition of 12 μL/well of 100 mM EDTA, pH 8, and shaken for a further 5 min at RT (500 U/min). 55 μL of the reaction mixture are transferred into a streptavidin plate (Strepta Well High Bind (transparent, 96-well) made by Roche, No.: 11989685001) and incubated for 1 h at RT (shaking at 500 rpm). Then the microtitre plate is washed five times with 200 μL/well D-PBS (Invitrogen, No. 14190). 100 μL of a solution containing DELFIA Eu-N1 Anti-Phosphotyrosine PT66 antibody (Perkin Elmer, No.: AD0040, diluted 1:9000 in DELFIA test buffer (Perkin Elmer, No.: 1244-111)) is then added and it is incubated for 1 h at RT (shaking at 500 rpm). Then the plate is washed five times with 200 μL/well DELFIA washing buffer (Perkin Elmer, No.: 1244-114), 200 μL/well strengthening solution (Perkin Elmer, No.: 1244-105) is added and the whole is incubated for 10 min at RT (shaking at 300 rpm).
The time-delayed europium fluorescence is then measured in a microtitre plate reader (Victor, Perkin Elmer). The positive control consists of wells that contain solvent (0.5% DMSO in test buffer) and display uninhibited kinase activity. Wells that contain test buffer instead of enzyme act as a control for the background kinase activity.
The IC50 values are determined from concentration-activity analyses by iterative calculation using a sigmoid curve analysis algorithm (FIFTY, based on Graph PAD Prism Version 3.03) with a variable Hill coefficient.

T2 sequence (Q6DE08 60-361): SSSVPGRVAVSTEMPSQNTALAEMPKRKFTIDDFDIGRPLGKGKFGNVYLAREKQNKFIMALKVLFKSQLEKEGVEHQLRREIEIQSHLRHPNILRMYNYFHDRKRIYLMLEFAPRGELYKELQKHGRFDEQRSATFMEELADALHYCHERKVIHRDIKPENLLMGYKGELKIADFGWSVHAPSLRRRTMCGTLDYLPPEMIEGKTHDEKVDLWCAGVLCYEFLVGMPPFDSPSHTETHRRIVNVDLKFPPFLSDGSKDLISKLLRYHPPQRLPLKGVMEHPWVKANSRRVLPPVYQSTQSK
T2 sequence (O13024 790-847 partner): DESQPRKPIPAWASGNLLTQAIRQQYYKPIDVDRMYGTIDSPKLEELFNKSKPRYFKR
T1 sequence (Q05397 whole entry): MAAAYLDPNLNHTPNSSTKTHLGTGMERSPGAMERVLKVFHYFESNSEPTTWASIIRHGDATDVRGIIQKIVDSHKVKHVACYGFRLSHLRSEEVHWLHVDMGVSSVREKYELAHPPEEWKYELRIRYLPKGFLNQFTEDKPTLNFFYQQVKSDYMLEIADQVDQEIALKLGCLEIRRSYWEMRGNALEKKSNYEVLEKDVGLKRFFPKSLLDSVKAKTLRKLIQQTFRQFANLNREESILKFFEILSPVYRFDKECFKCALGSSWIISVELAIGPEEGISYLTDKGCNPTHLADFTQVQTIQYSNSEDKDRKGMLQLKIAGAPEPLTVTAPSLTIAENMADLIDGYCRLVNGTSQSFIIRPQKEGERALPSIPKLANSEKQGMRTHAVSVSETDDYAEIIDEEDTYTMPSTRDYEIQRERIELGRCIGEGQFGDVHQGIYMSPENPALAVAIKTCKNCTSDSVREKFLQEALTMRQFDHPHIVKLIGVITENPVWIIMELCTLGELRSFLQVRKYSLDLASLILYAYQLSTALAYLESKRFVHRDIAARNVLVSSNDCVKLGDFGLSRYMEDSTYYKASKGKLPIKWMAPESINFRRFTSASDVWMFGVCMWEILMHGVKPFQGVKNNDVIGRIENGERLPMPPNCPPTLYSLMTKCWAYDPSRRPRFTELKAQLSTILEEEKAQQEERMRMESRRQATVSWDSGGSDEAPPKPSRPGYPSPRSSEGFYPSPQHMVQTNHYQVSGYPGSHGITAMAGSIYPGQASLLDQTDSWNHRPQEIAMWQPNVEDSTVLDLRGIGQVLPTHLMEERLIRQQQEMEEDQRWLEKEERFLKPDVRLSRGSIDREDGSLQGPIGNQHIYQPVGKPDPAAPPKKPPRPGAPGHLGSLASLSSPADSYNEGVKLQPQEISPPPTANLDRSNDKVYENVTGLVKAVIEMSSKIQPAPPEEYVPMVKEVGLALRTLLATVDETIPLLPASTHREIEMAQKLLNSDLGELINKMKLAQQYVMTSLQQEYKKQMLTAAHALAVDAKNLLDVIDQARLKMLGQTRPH

The IC50 is the point on the concentration scale where inhibition reaches its midpoint. As to `COc1cc(C(=O)NC2CCN(C)CC2)ccc1Nc1ncc(C(F)(F)F)c(N[C@@H]2CCCC[C@H]2NS(C)(=O)=O)n1` [Example I-125, 4-[4-((1R,2R)-2-methanesulphonylamino-cyclohexylamino)-5-trifluoromethyl-pyrimidin-2-ylamino]-3-methoxy-N-(1-methyl-piperidin-4-yl)-benzamide], the IC50 is 0.93 nM against PTK2 enzyme [1] and 257 nM in assay [2].

With `COc1cc(C(=O)NC2CCN(C)CC2)ccc1Nc1ncc(C(F)(F)F)c(N[C@@H]2CCC[C@H]2NS(C)(=O)=O)n1` [Example I-126, 4-[4-((1R,2R)-2-methanesulphonylamino-cyclopentylamino)-5-trifluoromethyl-pyrimidin-2-ylamino]-3-methoxy-N-(1-methyl-piperidin-4-yl)-benzamide], the IC50 was 0.9 nM on PTK2 enzyme [1] and 265 nM in assay [2].

`COc1cc(C(=O)NC2CCN(C)CC2)c(F)cc1Nc1ncc(Cl)c(N[C@@H]2CCC[C@H]2N(C)S(C)(=O)=O)n1` [Example I-127, 4-{5-chloro-4-[(1R,2R)-2-(methanesulphonyl-methyl-amino)-cyclopentylamino]-pyrimidin-2-ylamino}-2-fluoro-5-methoxy-N-(1-methyl-piperidin-4-yl)-benzamide]: the IC50 against PTK2 enzyme [3] worked out at 0.53 nM; in assay [2], 417 nM.

Turning to `COc1cc(C(=O)NC2CCN(C)CC2)c(Cl)cc1Nc1ncc(C(F)(F)F)c(N[C@@H]2CCCC[C@H]2N(C)S(C)(=O)=O)n1` [Example I-128], the values for the IC50 (against PTK2 enzyme [1]; in assay [2]) were 0.79 nM and greater than 5000 nM, respectively.

Regarding `COc1cc(C(=O)NC2CCN(C)CC2)c(Cl)cc1Nc1ncc(C(F)(F)F)c(N[C@@H]2CCC[C@H]2N(C)S(C)(=O)=O)n1` [Example I-131], the IC50 at PTK2 enzyme [3] is 0.29 nM; in assay [2] it was 1010 nM.

As to `COCCNC(=O)c1cc(OC)c(Nc2ncc(C(F)(F)F)c(N[C@@H]3CCCC[C@H]3N(C)S(C)(=O)=O)n2)cc1C` [Example I-133], the results for the IC50 (on PTK2 enzyme [1]; in assay [2]) were 0.91 nM and 2190 nM, respectively.

As to `COc1cc(N2CCNCC2)c(Cl)cc1Nc1ncc(C(F)(F)F)c(N[C@@H]2CCC[C@H]2N(C)S(C)(=O)=O)n1` [Example I-134], the IC50 against PTK2 enzyme [3] stood at 0.5 nM; in assay [2], 778 nM.

`CNC(=O)c1cc(OC)c(Nc2ncc(C(F)(F)F)c(N[C@@H]3CCCC[C@H]3N(C)S(C)(=O)=O)n2)cc1Cl` [Example I-135]: the IC50 was 1 nM on PTK2 enzyme [1] and 1030 nM in assay [2].

Consider `CNC(=O)c1cc(OC)c(Nc2ncc(C(F)(F)F)c(N[C@@H]3CCCC[C@H]3NS(C)(=O)=O)n2)cc1Cl` [Example I-137], for which the figures for the IC50 (at PTK2 enzyme [3]; in assay [2]) were 0.44 nM and 1070 nM, respectively.

For the compound `C#CCNC(=O)c1cc(OC)c(Nc2ncc(C(F)(F)F)c(N[C@@H]3CCC[C@H]3NS(C)(=O)=O)n2)cc1C` [Example I-138], the IC50 amounted to 0.41 nM on PTK2 enzyme [3] and 422 nM in assay [2].

As to `COc1cc(N2CCN(C(C)(C)C)CC2)c(C)cc1Nc1ncc(C(F)(F)F)c(N[C@@H]2CCC[C@H]2N(C)S(C)(=O)=O)n1` [Example I-140], the IC50 against PTK2 enzyme [3] was 0.86 nM; in assay [2], greater than 5000 nM.

For `COc1cc(C(=O)NC2CCN(C)CC2)c(F)cc1Nc1ncc(Br)c(N[C@@H]2CCC[C@H]2N(C)S(C)(=O)=O)n1` [Example I-142], the IC50 against PTK2 enzyme [3] was found to be 0.5 nM; in assay [2], 311 nM.

Take `COc1cc(CN(C)C)ccc1Nc1ncc(C(F)(F)F)c(N[C@@H]2CCCC[C@H]2N(C)S(C)(=O)=O)n1` [Example I-147]: the IC50 against PTK2 enzyme [1] was determined as 0.9 nM; in assay [2], 332 nM.

With `COc1cc(CN2CCN(C)CC2)ccc1Nc1ncc(C(F)(F)F)c(N[C@@H]2CCCC[C@H]2N(C)S(C)(=O)=O)n1` [Example I-148], the IC50 at PTK2 enzyme [1] was 0.95 nM; in assay [2], 707 nM.

Consider `COc1cc(C(=O)NC2CCN(C)CC2)c(C)cc1Nc1ncc(Cl)c(N[C@@H]2CCCC[C@H]2N(C)S(C)(=O)=O)n1` [Example I-164], for which the IC50 on PTK2 enzyme [1] stood at 1 nM; in assay [2], 3360 nM.

Consider `COc1cc(NC(C)=O)ccc1Nc1ncc(C(F)(F)F)c(N[C@@H]2CCCC[C@H]2N(C)S(C)(=O)=O)n1` [Example I-165], for which the IC50 against PTK2 enzyme [1] was 4 nM; in assay [2] it was 167 nM.

These data come from patent US20110071158A1, “NEW COMPOUNDS” (BOEHRINGER INGELHEIM INTERNATIONAL GMBH, priority 2009, published 2011).
